Laboratory results from patent US8993634B2, “Methods and use of compounds that bind to Her2/neu receptor complex” (The Trustees Of The University Of Pennsylvania, priority 2010, dated 2015).

What was measured:
T6-17 cells = test: Anchorage-independent growth (soft agar colony) screening, T6-17 cells; assay type: cell-based, murine; details: p<0.05, FIG. 1
Description: (§1) Targeted molecules were screened in vitro for anti-tumor activity using a modified […] growth of transformed cell assay, as described in Fukazawa et al. (1995), Anal. Biochem., 10:83-90. Anchorage-independent growth capability is perhaps the best indicator of the malignant phenotype and is determined by efficiency of cells to form colonies in soft agar (Drebin, et al., 1985). All experiments were conducted in 6 cm dishes in triplicate. Agar bottom layers consisted of 3 ml 0.25% agarose/DMEM (Dulbecco's Modified Eagle Medium) supplemented with 10% FBS (Fetal Bovine Serum), 2 mM L-glutamine, and 100μ/ml Penicillin/1 μg/ml Streptomycin. About 1000-2000 cells T6-17/SK-BR-3 are layered on the top in 1 ml 0.18% agarose/DMEM, 10% FBS, 2 mM L-glutamine, and 100 u/ml Penicillin/i 1 μg/ml Streptomycin. Cultures were treated every 3 days with 0.5 ml of supplemented DMEM containing measured amounts of the Her2 inhibitors, or DMSO (dimethyl sulfoxide) alone. On the day before the colonies were counted, the samples were incubated with 1 ml of Hank's Balanced Salt Solution containing 1 mg/ml p-iodonitrotetrazolium violet (INT, Sigma) to stain colonies. The next day, colonies were counted using a 7× achromatic magnifying eyepiece (Bausch and Lomb). Triplicate cultures were counted on day 21 and will be verified by at least two different persons. […]

SK-BR-3 cells = test: Anchorage-independent growth (soft agar colony) screening, SK-BR-3 cells; assay type: cell-based, human; details: p<0.05, FIG. 1
Description: as §1

CC(C)(C#Cc1cc(C(F)(F)F)cc(C(F)(F)F)c1)NC(=S)Nc1cccc(F)c1 [S22—04]
cellular growth in culture (colonies in soft agar) (T6-17 cells): reduced cellular growth in culture | cellular growth in culture (colonies in soft agar) (SK-BR-3 cells): reduced cellular growth in culture
